Experimental data taken from the supplement of paper PMC10331698.
± gives the standard deviation of the averaged measurements.

Columns and labels:
Assay in all cases: LOEC (log10 uM (lowest observed effect concentration))
[1] = compound: C=CC(=O)OCC(F)(F)C(F)(F)C(F)(F)COC(=O)C=C [1H,1H,5H,5H-Perfluoro-1,5-pentanediol diacrylate]
Method: (§1)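 BioMAP Diversity Plus panel in human primary cell co-cultures, 4 concentrations in duplicate blinded samples. Responses are log10 fold change versus DMSO control, processed with tcpl v2.1.0. A hit is called when responses at any concentration exceed the cutoff (the larger of 3*bmad or log10(1.2)); the lowest observed effect concentration (modl_ga, log10 uM) is reported for hits.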

[2] = compound: FC(F)(F)C(F)(F)C(F)(F)C(F)(F)C(F)(F)C(F)(F)C(F)(F)I [1-Iodopentadecafluoroheptane]
Method: as §1

[3] = compound: O=C(O)C(F)(F)C(F)(F)C(F)(F)C(F)(F)C(F)(F)C(F)(F)C(F)(F)C(F)(F)C(F)(F)C(F)F [11-H-Perfluoroundecanoic acid]
Method: as §1

[4] = compound: O=S(=O)(Cl)C(F)(F)C(F)(F)C(F)(F)C(F)(F)C(F)(F)C(F)(F)C(F)(F)C(F)(F)F [Perfluoro-1-octanesulfonyl chloride]
Method: as §1

[5] = compound: O=S(=O)(O)CCC(F)(F)C(F)(F)C(F)(F)C(F)(F)C(F)(F)C(F)(F)F [6:2 Fluorotelomer sulfonic acid]
Method: as §1

[6] = compound: NS(=O)(=O)C(F)(F)C(F)(F)C(F)(F)C(F)(F)C(F)(F)C(F)(F)F [Perfluorohexanesulfonamide]
Method: as §1

Nonafluoropentanamide = compound: NC(=O)C(F)(F)C(F)(F)C(F)(F)C(F)(F)F [Nonafluoropentanamide]
Method: as §1

Row | Test System | LOEC (log10 uM) [1] | LOEC (log10 uM) [2] | LOEC (log10 uM) [3] | LOEC (log10 uM) [4] | LOEC (log10 uM) [5] | LOEC (log10 uM) [6] | LOEC (log10 uM) (Nonafluoropentanamide)
1 | MyoF CollagenI down | 1.3 | 0.845 | 1.3 | – | – | – | –
2 | LPS IL8 up | – | – | – | 1.78 | 1.54 ± 0.34 | – | –
3 | MyoF ACTA1 down | 0.845 | 0.301 | 1.54 ± 0.34 | – | – | – | –
4 | MyoF CollagenIV up | – | 0.845 | 1.07 ± 0.32 | 1.78 | – | 1.3 | –
5 | MyoF MMP1 up | 0.845 | 0.573 ± 0.39 | – | – | – | – | –
6 | MyoF CollagenIII down | 1.3 | 0.845 | 1.3 | 1.78 | – | – | –
7 | MyoF VCAM1 down | 0.845 | 0.573 ± 0.39 | 1.3 | – | – | – | –
8 | 3C Thrombomodulin down | – | – | – | – | – | – | 1.31 ± 0.66
9 | MyoF SRB down | 1.3 | 0.845 | 1.3 | – | – | 1.78 | –
